{"source": "patent US20060019270A1", "about": "“Global DNA methylation assessment using bisulfite PCR” (Board of Regents The University of Texas System, priority 2004, published 2006)", "format_in_all_cases": "cell-based, human", "key": {"[1]": {"test_system": "LINE-1 methylation in SW48 cells", "test": "COBRA (HinfI) of LINE-1 PCR, SW48 cells treated with DAC", "details": "5 μM DAC for three days, decrease from 59%", "description": "(§1) Hct116, RKO and SW48, colon cancer cell lines (American Type Culture Collection, Manassas, Va.), were cultured using standard methods. Cells were treated with 5 μM 5-aza-2′deoxycytidine (DAC) for three days prior to being harvested. DNA from cell lines and peripheral blood leukocytes was extracted using phenol-chloroform extraction methods well known to one with skill on the art.\n(§2) Bisulfite modification of genomic DNA is known in the art (see Clark et. al, 1994). In brief, 1.5 μg prepared 10 mM hydroquinone (Sigma) and 520 μl of 3M Sodium Bisulfite (Sigma) at pH=5.0 were added and mixed. The samples were overlayed with mineral oil to prevent evaporation and incubated at 50° C. for 16 hours. The bisulfite treated DNA was isolated using Wizard DNA Clean-Up System (Promega). The DNA was eluted by 50 μl of warm water and 5.5 μl of 3M NaOH were added for 5 minutes. The DNA was ethanol precipitated with glycogen as a carrier and resuspended in 20 μl water. Bisulfite treated DNA was stored at −20° C. until ready for use. […]\n(§3) In order to test whether Alu element […] LINE-1 methylation could approximate global methylation, COBRA, restriction digestion of the repetitive element PCR product, was used to quantitate DNA methylation in cell lines treated with 5-aza-2′deoxycytidine (DAC) (FIG. 3). […] Thus both assays reliably detected inhibition of methylation induced by DAC. […]"}, "[2]": {"test_system": "LINE-1 methylation in Hct116, RKO and SW48 cell lines", "test": "LINE-1 methylation assay in cell lines treated with DAC (FIG. 14)", "details": "compared with untreated", "description": "Hct116, RKO and SW48 cell lines were treated with 5-aza-2′deoxycytidine (DAC). The genomic DNA was treated with sodium bisulfite and a non-specific PCR was performed which amplified a pool of LINE-1 repetitive elements. The PCR product was then digested with HinfI, which only cuts repetitive elements that were originally methylated. The LINE-1 PCR assays the methylation of two sites and therefore HinfI can generate five possible digestion products of 285, 247, 166, 128 and 38 bp (not seen). The digested PCR product was separated by polyacrylamide gel electrophoresis and stained with ethidium bromide. The PCR bands were quantitated and the amount of methylation is shown below each gel lane.\nMethylation of the L1 promotor was investigated by COBRA assay (Xiong and Laird, 1997), and bisulfite treatment was performed as described above. A […] PCR was carried out in 60 mM Tris-HCl pH=8.8, 15 mM Ammonium Sulfate, 0.5 mM MgCl2, 1 mM dNTP mix, and 1 unit of Taq polymerase. PCR cycling conditions were 95° C. for 30 seconds, 50° C. for 30 seconds, and 72° C. for 30 seconds for 28 cycles. […] Gels were stained with ethidium bromide, imaged, and quantitated in a Bio-Rad Geldoc 2000 imager (Bio-Rad, Hercules, Calif.). […]"}, "[3]": {"test_system": "LINE-1 methylation in Hct116 cells", "test": "COBRA (HinfI) of LINE-1 PCR, Hct116 cells treated with DAC", "details": "5 μM DAC for three days, 77% prior to treatment", "description": "as §1, §2, §3"}}}
{"smiles": "Nc1ncn([C@H]2C[C@H](O)[C@@H](CO)O2)c(=O)n1", "note": "[decitabine, 5-aza-2′-deoxycytidine]", "values": [{"measurement": "LINE-1 methylation after treatment with DAC", "setting": "[1]", "value": 41, "unit": "%"}, {"measurement": "LINE-1 methylation in DAC treated cell lines", "setting": "[2]", "value": "lower degree of methylation"}, {"measurement": "LINE-1 methylation after treatment with DAC", "setting": "[3]", "value": 17, "unit": "%"}]}
